Results reported in ChEMBL document CHEMBL1201862, “PubChem BioAssay data set” (2004).
Calls of active or inactive are those of the source. Cut-off read from the data, not from the text of the source, for most assays here: actives have a measured EC50 and inactives only a lower limit.

Legend:
[1] = M. tuberculosis H37Rv growth inhibitors, H37Rv strain (AID 1626); assay type: functional
Streptococcus = experiment: Group A Streptococcus viability loss, dose response, counter-screen for streptokinase expression inhibitor project, luminescence, BacTiterGlo (AID 1915); assay type: functional, organism-based;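 note: potency for reduction of bacterial viability or growth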
[2] = molecular target: T1, Serine/threonine-protein phosphatase (Candida dubliniensis (strain CD36 / CBS 7987 / NCPF 3949 / NRRLY-17841) (Yeast), UniProt B9W6M3); experiment: calcineurin pathway inhibitors in yeast reporter, dose response, S. cerevisiae, CDRE-lacZ, luminescence, secondary (AID 2388); assay type: functional, cell-based;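 note: yeast reporter cells carrying a calcineurin-responsive lacZ construct stimulated with calcium chloride; luminescent beta-galactosidase reporter signal in whole cells rather than isolated phosphatase activity; potency for inhibition where a drop in reporter signal means calcineurin blockade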
T1 sequence (B9W6M3 whole entry): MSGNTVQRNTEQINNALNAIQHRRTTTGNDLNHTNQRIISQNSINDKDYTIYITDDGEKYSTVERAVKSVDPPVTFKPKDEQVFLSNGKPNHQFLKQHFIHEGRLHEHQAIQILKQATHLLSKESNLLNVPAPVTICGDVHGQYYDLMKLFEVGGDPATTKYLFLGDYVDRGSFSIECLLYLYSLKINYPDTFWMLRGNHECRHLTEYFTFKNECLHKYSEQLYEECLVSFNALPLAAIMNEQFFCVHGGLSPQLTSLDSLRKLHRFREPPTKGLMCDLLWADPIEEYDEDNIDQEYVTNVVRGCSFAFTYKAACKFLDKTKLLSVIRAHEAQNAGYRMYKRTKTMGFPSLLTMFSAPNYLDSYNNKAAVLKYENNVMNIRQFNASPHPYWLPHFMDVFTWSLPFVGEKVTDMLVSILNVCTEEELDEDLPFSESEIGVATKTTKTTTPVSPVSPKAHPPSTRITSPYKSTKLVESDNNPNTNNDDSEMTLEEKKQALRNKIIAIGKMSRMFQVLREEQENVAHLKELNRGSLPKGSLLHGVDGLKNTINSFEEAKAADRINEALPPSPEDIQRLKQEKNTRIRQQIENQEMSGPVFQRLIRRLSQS

[3] = NIH-3T3 fibroblast cytotoxicity, dose response, cytotoxicity control, cell-based, fluorescence, Alamar Blue, secondary assay (AID 2327); assay type: functional;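 note: NIH-3T3 mouse fibroblasts cultured with fluconazole at 8 µg/mL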
[4] = growth suppression of beta-catenin-knockout colon cells, dose response, cell-based, HCT116, human colon tumor (AID 1045); assay type: functional;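 note: HCT116 colon tumor cells with beta catenin knocked out; cells exposed to compound for 60 hours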
[5] = growth suppression of PTEN-null colon cells, dose response, cell-based, HCT116 PTEN knockout (AID 1047); assay type: functional;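 note: HCT116 colon tumor cells with PTEN knocked out; cells exposed to compound for 60 hours before readout; potency for loss of cell viability measured by luminescence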
[6] = system: Streptococcus sp. 'group A'; experiment: growth inhibition of control SK(-) GAS strain, dose response, counter-screen for streptokinase expression inhibitor project, luminescence, kanamycin, BacTiterGlo, confirmation (AID 1900); assay type: functional, organism-based
[7] = inhibitors of intracellular T. cruzi replication, confirmation, NIH3T3 host cells, beta-gal luminescence (AID 2044); assay type: functional, cell-based;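 note: intracellular parasites grown in NIH/3T3 mouse fibroblasts as host cells; luminescent beta-galactosidase reporter signal from transgenic T. cruzi replicating inside host cells; inhibitors lower the luminescence signal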
[8] = C. albicans growth with fluconazole, confirmation, fluorescence, retest (AID 2467); assay type: functional, cell-based
Streptokinase A = molecular target: T2, Streptokinase A (Streptococcus pyogenes serotype M1, UniProt P10520); experiment: S. pyogenes streptokinase expression inhibitors, potency, dose response, plasminogen activation absorbance, OD405 (AID 1914); assay type: functional, Streptococcus pyogenes M1 GAS;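 note: secreted streptokinase activity via plasminogen activation per viability signal from cell pellet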
T2 sequence (P10520 whole entry): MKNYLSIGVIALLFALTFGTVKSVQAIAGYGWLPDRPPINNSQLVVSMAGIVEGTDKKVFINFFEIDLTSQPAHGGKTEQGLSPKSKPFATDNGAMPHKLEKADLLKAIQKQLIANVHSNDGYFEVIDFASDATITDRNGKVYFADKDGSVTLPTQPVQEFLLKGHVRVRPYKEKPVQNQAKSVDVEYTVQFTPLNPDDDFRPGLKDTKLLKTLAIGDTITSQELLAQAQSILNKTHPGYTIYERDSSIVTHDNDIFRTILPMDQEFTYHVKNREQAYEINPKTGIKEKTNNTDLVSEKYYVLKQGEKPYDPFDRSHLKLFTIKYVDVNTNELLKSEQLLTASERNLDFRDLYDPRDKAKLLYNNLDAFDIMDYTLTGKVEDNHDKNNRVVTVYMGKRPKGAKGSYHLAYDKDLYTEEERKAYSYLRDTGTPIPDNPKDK

[9] = molecular target: T3, Microphthalmia-associated transcription factor (Homo sapiens, UniProt O75030); experiment: TRPM1 promoter luciferase signal decrease, dose response, MITF inhibitor project, cell-based, SK-MEL-5, cherry-picked, set 3 (AID 493073); assay type: functional
T3 sequence (O75030 whole entry): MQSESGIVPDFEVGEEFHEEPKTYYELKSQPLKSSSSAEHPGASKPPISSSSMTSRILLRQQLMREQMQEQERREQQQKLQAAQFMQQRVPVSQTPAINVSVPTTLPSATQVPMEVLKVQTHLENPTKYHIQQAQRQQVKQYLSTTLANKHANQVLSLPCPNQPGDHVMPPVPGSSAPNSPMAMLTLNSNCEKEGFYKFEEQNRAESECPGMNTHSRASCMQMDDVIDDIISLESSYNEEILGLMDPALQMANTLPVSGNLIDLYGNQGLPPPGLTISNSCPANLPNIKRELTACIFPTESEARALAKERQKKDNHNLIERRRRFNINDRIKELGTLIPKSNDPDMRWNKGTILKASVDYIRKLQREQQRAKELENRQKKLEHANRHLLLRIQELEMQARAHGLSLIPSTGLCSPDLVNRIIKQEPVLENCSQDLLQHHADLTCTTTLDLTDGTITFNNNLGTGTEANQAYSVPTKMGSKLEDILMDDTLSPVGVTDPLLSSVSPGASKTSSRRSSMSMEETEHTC

[10] = molecular target: ATP-dependent molecular chaperone HSP82 (Candida albicans (strain WO-1) (Yeast), UniProt C4YTQ8); experiment: loss of DOC-induced GRE-beta-galactosidase reporter signal, dose response, Hsp90 inhibitor project, S. cerevisiae, luminescence (AID 2400); assay type: functional, cell-based;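 note: beta-galactosidase luminescence from glucocorticoid response element reporter as proxy for Hsp90 function; inhibitor potency where signal loss means Hsp90 inhibition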
Chain of ATP-dependent molecular chaperone HSP82 (C4YTQ8 whole entry): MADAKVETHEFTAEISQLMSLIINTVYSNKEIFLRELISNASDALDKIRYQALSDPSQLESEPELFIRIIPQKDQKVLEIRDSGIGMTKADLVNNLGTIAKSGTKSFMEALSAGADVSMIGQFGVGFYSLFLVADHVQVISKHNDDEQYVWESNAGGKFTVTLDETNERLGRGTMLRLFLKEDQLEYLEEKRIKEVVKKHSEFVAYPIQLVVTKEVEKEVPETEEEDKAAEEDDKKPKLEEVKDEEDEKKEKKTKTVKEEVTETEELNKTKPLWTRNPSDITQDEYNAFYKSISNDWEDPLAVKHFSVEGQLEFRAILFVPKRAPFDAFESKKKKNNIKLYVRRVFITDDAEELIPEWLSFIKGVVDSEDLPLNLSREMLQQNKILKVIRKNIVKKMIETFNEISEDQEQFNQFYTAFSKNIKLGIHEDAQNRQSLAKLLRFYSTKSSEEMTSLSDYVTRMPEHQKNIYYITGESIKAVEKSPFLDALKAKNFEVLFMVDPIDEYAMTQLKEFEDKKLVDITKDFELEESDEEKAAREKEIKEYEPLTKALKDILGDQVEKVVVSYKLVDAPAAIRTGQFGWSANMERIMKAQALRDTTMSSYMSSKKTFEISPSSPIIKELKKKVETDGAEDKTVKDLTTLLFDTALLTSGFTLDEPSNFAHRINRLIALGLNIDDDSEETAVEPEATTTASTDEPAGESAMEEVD

[11] = cytotoxicity toward NIH3T3 fibroblasts, dose response, counter-screen, cell-based, ATP luminescence, mouse fibroblasts (AID 2010); assay type: functional;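 note: cells exposed to compound for about 90 hours before reading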
[12] = Luminescence Cell-Based Dose Response HTS to Identify Activators of Luciferase Translation or Activity in H4 […] Cells. [Related pubchem assays: 1829 (Project Summary), 1814 (Primary HTS)]; assay type: functional
[13] = Luminescence Cell-Based Dose Response to Identify Activators of Luciferase Translation or Activity in H4-C Neuroglioblastoma Cells. [Related pubchem assays: 1829 (Project Summary), 1814 (Primary HTS)]; assay type: functional
[14] = Luminescence Cell-Based Dose Confirmation HTS to Identify Activators of 5'UTR Stem-Loop Driven Alpha-Synuclein mRNA Translation in H4 Neuroglioblastoma Cells. [Related pubchem assays: 1829 (Project Summary), 1814 (Primary HTS)]; assay type: functional
H4 = experiment: Luminescence Cell-Based Dose Response HTS to Identify Activators of 5'UTR Stem-Loop Driven Prion Protein mRNA Translation in H4 Neuroglioblastoma Cells. [Related pubchem assays: 1829 (Project Summary), 1814 (Primary HTS)]; assay type: functional; settings: Homo sapiens
HeLa = experiment: HeLa cell cytotoxicity, dose response, cytotoxicity control for MITF activator project, CellTiter-Glo luminescence, cherry-pick samples (AID 540259); assay type: functional, cell-based; settings: Homo sapiens
[15] = Luminescence Cell-Based Dose Confirmation to Identify Activators of 5'UTR Stem-Loop Driven Alpha-Synuclein mRNA Translation in H4 Neuroglioblastoma Cells. [Related pubchem assays: 1829 (Project Summary), 1814 (Primary HTS)]; assay type: functional
[16] = Luminescence Cell-Based Dose Response to Identify Activators of 5'UTR Stem-Loop Driven Prion Protein mRNA Translation in H4-C Neuroglioblastoma Cells. [Related pubchem assays: 1829 (Project Summary), 1814 (Primary HTS)]; assay type: functional

COc1ccc(OCCCC(=O)Nc2cccc(SC)c2)cc1
active: IC50 [1] > 100 µM

O=C(CNc1ccc2ccccc2c1)N/N=C/c1ccc([N+](=O)[O-])o1
inactive: EC50 [2] > 180 µM | EC50 [3] > 160 µM | EC50 [10] > 160 µM
> 60 µM (not active): EC50 [11]
> 150 µM (not active): EC50 (Streptococcus) | EC50 (Streptokinase A)
active: EC50 (cells) 0.019 µM | EC50 [4] 15.9 µM | EC50 [5] 14.2 µM | EC50 [6] 11.1 µM | EC50 [7] < 0.1 µM | EC50 [8] 3.85 µM | AC50 [9] 4.95 µM

CS(=O)(=O)N1N=C(c2ccc(Br)cc2)CC1c1ccc2c(c1)OCO2 (stereo unspecified)
active: EC50 [12] < 0.1 µM | EC50 [13] 0.344 µM | EC50 [14] 0.174 µM | EC50 (H4) < 0.1 µM | AC50 (HeLa) 61.3 µM | EC50 [15] 0.467 µM | EC50 [16] 0.328 µM
